From ChEMBL document CHEMBL4229453, “New lead elements for histamine H3 receptor ligands in the pyrrolo[2,3-d]pyrimidine class” (Bioorg Med Chem Lett, 2018)

Assays:
Histamine H3 receptor [1] = target: T1, Histamine H3 receptor (Homo sapiens, UniProt Q9Y5N1); experiment: Displacement of [3H]Nalpha-methylhistamine from human H3 receptor at 1 uM relative to control
Histamine H3 receptor [2] = target: T1, Histamine H3 receptor; experiment: Displacement of [3H]Nalpha-methylhistamine from human H3 receptor
[3] = target: Histamine H4 receptor (Homo sapiens) (UniProt Q9H3N8); experiment: Displacement of [3H]histamine from human H4 receptor at 1 uM relative to control

T1 sequence (Q9Y5N1 whole entry): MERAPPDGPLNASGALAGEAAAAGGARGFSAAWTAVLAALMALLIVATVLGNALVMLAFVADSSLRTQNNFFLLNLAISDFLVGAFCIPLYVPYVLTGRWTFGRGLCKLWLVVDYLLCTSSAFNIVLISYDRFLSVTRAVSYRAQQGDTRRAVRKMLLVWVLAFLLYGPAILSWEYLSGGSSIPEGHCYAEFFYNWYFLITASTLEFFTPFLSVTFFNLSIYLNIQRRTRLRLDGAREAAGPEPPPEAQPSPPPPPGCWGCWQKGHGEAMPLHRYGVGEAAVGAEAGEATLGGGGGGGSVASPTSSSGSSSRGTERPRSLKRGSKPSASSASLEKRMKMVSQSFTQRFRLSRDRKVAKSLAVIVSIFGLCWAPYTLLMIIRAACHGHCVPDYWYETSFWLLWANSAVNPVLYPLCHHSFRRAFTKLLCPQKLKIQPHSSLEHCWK

inhibition (Histamine H3 receptor [1]) [%] | Ki (Histamine H3 receptor [2]) [nM] | inhibition [3] [%] | Compound
< 80 | 1070 | < 80 | Clc1nc(N2CCC(N3CCOCC3)CC2)c2ccn(Cc3ccccc3)c2n1
< 80 |  | < 80 | Clc1nc(N2CCC(N3CCOCC3)CC2)c2ccn(Cc3ccc4ccccc4c3)c2n1
< 80 |  | < 80 | Clc1nc(N2CCC(N3CCOCC3)CC2)c2ccn(Cc3cccc4ccccc34)c2n1
95 | 148 | < 80 | Clc1nc(N2CCC(N3CCCCC3)CC2)c2ccn(Cc3cccc4ccccc34)c2n1

More lines, now with the values behind:

Compound | inhibition (Histamine H3 receptor [1]) [%] | Ki (Histamine H3 receptor [2]) [nM] | inhibition [3] [%]
Clc1nc(NCCN2CCOCC2)c2ccn(Cc3ccccc3)c2n1 | < 80 |  | < 80
Clc1nc(N2CCC(N3CCCCC3)CC2)c2ccn(Cc3ccc4ccccc4c3)c2n1 | 95 | 126 | < 80
Clc1nc(NCCN2CCOCC2)c2ccn(Cc3ccc4ccccc4c3)c2n1 | < 80 |  | < 80
CN1CCN(c2nc(Cl)nc3c2ccn3Cc2ccccc2)CC1 | < 80 |  | < 80
Clc1nc(N2CCC(N3CCCCC3)CC2)c2ccn(Cc3ccccc3)c2n1 | 96 | 490 | < 80
CN1CCN(c2nc(Cl)nc3c2ccn3Cc2ccc3ccccc3c2)CC1 | < 80 |  | < 80
Clc1nc(NCCN2CCOCC2)c2ccn(Cc3cccc4ccccc34)c2n1 | < 80 |  | < 80
CN1CCN(c2nc(Cl)nc3c2ccn3Cc2cccc3ccccc23)CC1 | < 80 |  | < 80
